Data as given in patent publication US8835440B2, “Cyclic pyrimidin-4-carboxamides as CCR2 receptor antagonists for treatment of inflammation, asthma and COPD” (Boehringer Ingelheim International GmbH, priority 2008, dated 2014).
Blank lines part the entries; values can stand above or below the compound they belong to.

Target: T1, CCR2 (Homo sapiens, UniProt P41597)
T1 construct: Membranes were prepared from THP-1 cells; endogenous in cells; host or cells: THP-1 cells (membrane preparation)
T1 sequence (P41597 1-360 isoform P41597-2): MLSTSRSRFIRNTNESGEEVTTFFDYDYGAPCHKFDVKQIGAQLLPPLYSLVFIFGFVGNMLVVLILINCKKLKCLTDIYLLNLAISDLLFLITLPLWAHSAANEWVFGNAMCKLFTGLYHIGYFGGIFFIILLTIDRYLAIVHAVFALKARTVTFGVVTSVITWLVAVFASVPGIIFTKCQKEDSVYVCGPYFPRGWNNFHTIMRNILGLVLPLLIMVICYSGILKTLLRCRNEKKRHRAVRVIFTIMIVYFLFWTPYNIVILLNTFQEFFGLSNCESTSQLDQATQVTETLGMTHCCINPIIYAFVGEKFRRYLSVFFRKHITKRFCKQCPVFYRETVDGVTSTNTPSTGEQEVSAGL
Test: CCR2 receptor membrane binding assay ([125I]MCP-1, THP-1 cell membranes, SPA beads)
Conditions: for remaining activity at 10 µM: @ 10 μM test compound, THP-1 membranes, read-out: CCR2 % ctrl @ 10 μM; for Ki: dissociation constant hKi, [125I]MCP-1 binding to THP-1 membranes
In short: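 Human THP-1 monocytic cell membranes, pre-coupled to WGA-PVT SPA beads, were incubated with compound and [125I]MCP-1 (ca. 25000 cpm) in 25 mM HEPES pH 7.2, 5 mM MgCl2, 0.5 mM CaCl2, 0.2% BSA, at 1% DMSO final. Bound radioactivity was counted after 8 h, and Ki was obtained by iterative mass-action fitting.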

remaining activity at 10 µM: 5%
Ki: 140 nM
SMILES: CCC(C)NC(=O)C1CCN(C2CCN(C(=O)c3ncnc(NCc4ccc(C(C)(C)C)cc4)c3C)CC2)CC1 (centres unmarked) [Example 211]

remaining activity at 10 µM: 13%
Ki: 222 nM
SMILES: Cc1c(NCCc2ccc(Cl)c(Cl)c2)ncnc1C(=O)N1CCC(N2CCCCC2)CC1 [Example 2]

Ki: 18 nM
SMILES: CNC(=O)C1CCN(C2CCN(C(=O)c3ncnc(NCC4CCCC(c5ccc(F)cc5)C4)c3C)CC2)CC1 (centres unmarked) [Example 159aa]

Ki: 20 nM
SMILES: Cc1c(NC[C@@H]2CC[C@@H](c3ccc(C(F)(F)F)cc3)O2)ncnc1C(=O)N1CCC(N2CCC(N(C)S(C)(=O)=O)CC2)CC1 [Example 159ma]

remaining activity at 10 µM: 0%
Ki: 22 nM
SMILES: CCS(=O)(=O)N(C)C1CCN(C2CCN(C(=O)c3ncnc(NCc4ccc(C(F)(F)F)c(Cl)c4)c3C)CC2)CC1 [Example 33]

remaining activity at 10 µM: 15%
Ki: 256 nM
SMILES: Cc1c(NCc2ccc(Cl)c(Cl)c2)ncnc1C(=O)N1CCC(N2CCC(NC(N)=O)CC2)CC1 [Example 187]

remaining activity at 10 µM: 16%
Ki: 277 nM
SMILES: Cc1c(NCc2ccc(Cl)c(Cl)c2)ncnc1C(=O)N1CCC(N2CC[C@@H](NS(C)(=O)=O)C2)CC1 [Example 259]

remaining activity at 10 µM: 22%
Ki: 476 nM
SMILES: CO[C@@H]1CCN(C2CCN(C(=O)c3ncnc(NCc4ccc(C(C)(C)C)cc4)c3C)CC2)C1 [Example 219]

remaining activity at 10 µM: 60%
Ki: 4810 nM
SMILES: Cc1c(NCc2ccc(Cl)c(Cl)c2)ncnc1C(=O)N1CCC(N(C)CC2(C)COC2)CC1 [Example 180]

remaining activity at 10 µM: 1%
Ki: 58 nM
SMILES: CCOC1CCN(C2CCN(C(=O)c3ncnc(NCc4ccc(C(C)(C)C)cc4)c3C)CC2)CC1 [Example 198]

remaining activity at 10 µM: 22%
Ki: 333 nM
SMILES: CO[C@@H]1CN(C2CCN(C(=O)c3ncnc(NCc4ccc(Cl)c(Cl)c4)c3C)CC2)CC[C@H]1N(C)S(C)(=O)=O [Example 227]

Ki: 54 nM
SMILES: Cc1c(NCC2Cc3cc(Cl)ccc3O2)ncnc1C(=O)N1CCC(N2CCC(N(C)S(C)(=O)=O)CC2)CC1 (centres unmarked) [Example 159rb]

remaining activity at 10 µM: 25%
Ki: 491 nM
SMILES: CC(=O)N(C)C1CCN(C2CCN(C(=O)c3ncnc(NCc4ccc(Cl)c(Cl)c4)c3C)CC2)CC1 [Example 194]

Ki: 21 nM
SMILES: Cc1c(NCC2COc3ccc(Cl)cc3C2)ncnc1C(=O)N1CCC(N2CCC(N(C)S(C)(=O)=O)CC2)CC1 (centres unmarked) [Example 159sb]

remaining activity at 10 µM: 6%
Ki: 89 nM
SMILES: CNC(=O)C1CCN(C2CCN(C(=O)c3ncnc(NCCc4ccc(Cl)c(Cl)c4)c3C)CC2)CC1 [Example 173]

remaining activity at 10 µM: 7%
Ki: 54 nM
SMILES: Cc1c(NCc2ccc(Cl)c(F)c2)ncnc1C(=O)N1CCC(N2CCC(N(C)S(C)(=O)=O)CC2)CC1 [Example 63]

remaining activity at 10 µM: 19%
Ki: 593 nM
SMILES: Cc1c(C(=O)N2CCC(N3CCC(O)CC3)CC2)ccnc1NCc1ccc(Cl)c(Cl)c1 [Example 275]

remaining activity at 10 µM: 2%
Ki: 37 nM
SMILES: CCS(=O)(=O)N(C)C1CCN(C2CCN(C(=O)c3ncnc(NCc4ccc(C)c(Cl)c4)c3C)CC2)CC1 [Example 32]

remaining activity at 10 µM: 2%
Ki: 214 nM
SMILES: COC1CCN(C2CCN(C(=O)c3ncnc(NCc4ccc(C)c(Cl)c4)c3C)CC2)CC1 [Example 98]

Ki: 44 nM
SMILES: Cc1c(NCc2ccc(C(C)(C)C)cc2)ncnc1C(=O)N1CCC(N2CCC(c3ccc(C#N)cc3)CC2)CC1 [Example 228gk]

remaining activity at 10 µM: 8%
Ki: 127 nM
SMILES: CCc1ccc(CNc2ncnc(C(=O)N3CCC(N4CCC(N(C)S(C)(=O)=O)CC4)CC3)c2C)cc1 [Example 56]

remaining activity at 10 µM: 27%
Ki: 1640 nM
SMILES: Cc1ccc(CNc2ncnc(C(=O)N3CCC(N4CCOCC4)CC3)c2C)cc1F [Example 44]

remaining activity at 10 µM: 19%
Ki: 401 nM
SMILES: Cc1c(NCc2cccc(-c3ccccc3)c2)ncnc1C(=O)N1CCC(N2CCOC(C)C2)CC1 (centres unmarked) [Example 234]

remaining activity at 10 µM: 14%
Ki: 175 nM
SMILES: Cc1nc(NCc2ccc(Cl)c(Cl)c2)c(C)c(C(=O)N2CCC(N3CCC(O)CC3)CC2)n1 [Example 92]

remaining activity at 10 µM: 16%
Ki: 356 nM
SMILES: CC(=O)NC1CCN(C2CCN(C(=O)c3ncnc(NCCc4ccc(Cl)c(Cl)c4)c3C)CC2)CC1 [Example 171]

remaining activity at 10 µM: 42%
Ki: 1640 nM
SMILES: Cc1c(NCCc2ccc(Cl)c(Cl)c2)ncnc1C(=O)N1CCC(N2CCC[C@H](C(=O)O)C2)CC1 [Example 179]

remaining activity at 10 µM: 8%
Ki: 120 nM
SMILES: CNC(=O)C1CCN(C2CCN(C(=O)c3ncnc(NCc4ccc(C(C)(C)C)cc4)c3C)CC2)CC1 [Example 261]

remaining activity at 10 µM: 27%
Ki: 650 nM
SMILES: CNC(=O)[C@@H]1CCN(C2CCN(C(=O)c3ncnc(NCc4ccc(C(F)(F)F)c(Cl)c4)c3C)CC2)C1 [Example 77]

remaining activity at 10 µM: 25%
Ki: 620 nM
SMILES: Cc1c(NCC2Cc3ccccc3O2)ncnc1C(=O)N1CCC(N2CCC(O)CC2)CC1 (centres unmarked) [Example 27]

remaining activity at 10 µM: 38%
Ki: 1710 nM
SMILES: Cc1c(NCCc2cccc(C(F)(F)F)c2)ncnc1C(=O)N1CCC(N2CCC(O)CC2)CC1 [Example 11]

remaining activity at 10 µM: 30%
Ki: 2000 nM
SMILES: Cc1c(NCc2ccc(C(C)(C)C)cc2)ncnc1C(=O)N1CCCC(N2CCC(N(C)S(C)(=O)=O)CC2)CC1 (centres unmarked) [Example 161]

Second part, the compound before the results:

SMILES: Cc1c(NCC2COc3ccccc3C2)ncnc1C(=O)N1CCC(N2CCC(NS(C)(=O)=O)CC2)CC1 (centres unmarked) [Example 71]
remaining activity at 10 µM: 12%
Ki: 117 nM

SMILES: O=C(c1cc(NCc2ccc(-c3ccccc3)cc2)ncn1)N1CCC(N2CCCC(O)C2)CC1 (centres unmarked) [Example 103]
remaining activity at 10 µM: 30%
Ki: 1610 nM

SMILES: CO[C@@H]1COCC[C@@H]1NC1CCN(C(=O)c2ncnc(NC[C@H]3C[C@H](c4ccccc4)C3)c2C)CC1 [Example 275df]
Ki: 15 nM

SMILES: Cc1c(NCC2CCCN(c3ccc(C#N)c(Cl)c3)C2)ncnc1C(=O)N1CCC(N2CCC(N(C)S(C)(=O)=O)CC2)CC1 (centres unmarked) [Example 154]
remaining activity at 10 µM: 15%
Ki: 123 nM

SMILES: CO[C@@H]1COCC[C@@H]1NC1CCN(C(=O)c2nc(C)nc(NC[C@H]3C[C@H](c4ccccc4)C3)c2C)CC1 [Example 275de]
Ki: 16 nM

SMILES: Cc1c(NCC2CCN(c3ccccc3)CC2)ncnc1C(=O)N1CCC(N2CCC(N(C)S(C)(=O)=O)CC2)CC1 [Example 58]
remaining activity at 10 µM: 12%
Ki: 336 nM

SMILES: Cc1c(NCC2CCC(C(F)(F)F)CC2)ncnc1C(=O)N1CCC(N2CCC(O)CC2)CC1 (centres unmarked) [Example 13]
remaining activity at 10 µM: 42%
Ki: 1330 nM

SMILES: Cc1c(NC[C@H]2C[C@H](c3ccccc3)C2)ncnc1C(=O)N1CCC(N2CCC(N(C)S(C)(=O)=O)CC2)CC1 [Example 159ub]
Ki: 18 nM

SMILES: Cc1c(NCc2ccc(C(C)(C)C)cc2)ncnc1C(=O)N1CCC(NC2CCOc3ccccc32)CC1 (centres unmarked) [Example 228f]
remaining activity at 10 µM: 1%
Ki: 15 nM

SMILES: CO[C@@H]1COCC[C@@H]1NC1CCN(C(=O)c2ncnc(NC[C@@H]3CCC[C@H](c4ccc(C)o4)C3)c2C)CC1 [Example 275db]
Ki: 33 nM

SMILES: Cc1c(NCC2CCCC(c3ccccc3)C2)ncnc1C(=O)N1CCC(N2CCCCC2)CC1 (centres unmarked) [Example 131]
remaining activity at 10 µM: 6%
Ki: 55 nM

SMILES: Cc1c(N[C@@H]2CCc3ccccc3C2)ncnc1C(=O)N1CCC(N2CCC(O)CC2)CC1 [Example 25]
remaining activity at 10 µM: 47%
Ki: 2410 nM

SMILES: Cc1nc(NC[C@@H]2CCN(c3ccccc3)C2)c(C)c(C(=O)N2CCC(N3CCC(N(C)S(C)(=O)=O)CC3)CC2)n1 [Example 85]
remaining activity at 10 µM: 13%
Ki: 55 nM

SMILES: COc1nc(OCc2ccc(C(C)(C)C)cc2)c(C)c(C(=O)N2CCC(N3CCC(N(C)S(C)(=O)=O)CC3)CC2)n1 [Example 301]
Ki: 22 nM

SMILES: Cc1c(NCC2CCC(c3nc4ccccc4[nH]3)CC2)ncnc1C(=O)N1CCC(N2CCC(N(C)S(C)(=O)=O)CC2)CC1 (centres unmarked) [Example 159r]
Ki: 2580 nM

SMILES: Cc1c(NCC2CCCC(C)C2)ncnc1C(=O)N1CCC(N2CCC(N(C)S(C)(=O)=O)CC2)CC1 (centres unmarked) [Example 159g]
Ki: 15 nM

SMILES: Cc1c(NCC2CN(c3ccccc3)CCO2)ncnc1C(=O)N1CCC(N2CCC(N(C)S(C)(=O)=O)CC2)CC1 (centres unmarked) [Example 159s]
Ki: 1310 nM

SMILES: Cc1c(NCc2ccc(C(C)(C)C)cc2)ncnc1C(=O)N1CCC(N(C)C2CCCOC2)CC1 (centres unmarked) [Example 228a]
remaining activity at 10 µM: 9%
Ki: 1560 nM

SMILES: Cc1ccc(C2CCC(CNc3ncnc(C(=O)N4CCC(N5CCC(N(C)S(C)(=O)=O)CC5)CC4)c3C)O2)cc1 (centres unmarked) [Example 159cb]
Ki: 39 nM

SMILES: COc1nc(OCC2CCCC(c3ccccc3)C2)c(C)c(C(=O)N2CCC(N3CCC(N(C)S(C)(=O)=O)CC3)CC2)n1 (centres unmarked) [Example 302]
Ki: 32 nM

SMILES: Cc1c(NCC2CCN(c3ccccc3)CC2)ncnc1C(=O)N1CCC(N2CCCCC2)CC1 [Example 130]
remaining activity at 10 µM: 50%
Ki: 4270 nM

SMILES: CO[C@@H]1COCC[C@@H]1NC1CCN(C(=O)c2ncnc(NCc3ccc(C(C)(C)C)cc3)c2C)CC1 [Example 228ga]
Ki: 23 nM

SMILES: Cc1c(NCC2CCCC(c3ccc(F)cc3)C2)ncnc1C(=O)N1CCC(N2CCC(NS(C)(=O)=O)CC2)CC1 (centres unmarked) [Example 159ba]
Ki: 11 nM

SMILES: Cc1c(NCC2COC(c3ccccc3)C2)ncnc1C(=O)N1CCC(N2CCC(N(C)S(C)(=O)=O)CC2)CC1 (centres unmarked) [Example 159fb]
Ki: 199 nM
